Results taken from ChEMBL document CHEMBL5214989, “Overcoming Preclinical Safety Obstacles to Discover (S)-N-((1,2,3,5,6,7-Hexahydro-s-indacen-4-yl)carbamoyl)-6-(methylamino)-6,7-dihydro-5H-pyrazolo[5,1-b][1,3]oxazine-3-sulfonamide (GDC-2394): A Potent and Selective NLRP3 Inhibitor” (J Med Chem, 2022).
≈ marks a conversion by molar mass, not a printed value. Calls of active or inactive are those of the source. The rule behind the calls is not given here.

Tests used:
Rattus norvegicus = experiment: Anti-allodynic activity in MSU-induced Wistar rat gouty arthritis model assessed as mechanical allodynia at 50 mg/kg, iv administered once daily for 7 days and measured on day 2; format: functional, organism-based; conditions: time 7.0 day
[1] = Half life in Sprague-Dawley rat at 1 mg/kg, iv measured upto 24 hrs by LC-MS/MS analysis; format: ADME, organism-based; conditions: in vivo
[2] = Half life in CD-1 mouse at 1 mg/kg, iv measured upto 24 hrs by LC-MS/MS analysis; format: ADME, organism-based; conditions: in vivo
[3] = Volume of distribution at steady state in cynomolgus monkey at 1 mg/kg, po or 1 mg/kg, iv measured upto 24 hrs by LC-MS/MS analysis; format: ADME, organism-based, Macaca fascicularis; conditions: in vivo
[4] = Volume of distribution at steady state in Beagle dog at 1 mg/kg, po or 1 mg/kg, iv measured upto 24 hrs by LC-MS/MS analysis; format: ADME, organism-based, Canis lupus familiaris; conditions: in vivo
[5] = Volume of distribution at steady state in Sprague-Dawley rat at 1 mg/kg, po or 1 mg/kg, iv measured upto 24 hrs by LC-MS/MS analysis; format: ADME, organism-based; conditions: in vivo
[6] = Volume of distribution at steady state in CD-1 mouse at 1 mg/kg, po or 1 mg/kg, iv measured upto 24 hrs by LC-MS/MS analysis; format: ADME, organism-based; conditions: in vivo
[7] = Oral bioavailability in cynomolgus monkey at 1 mg/kg measured upto 24 hrs by LC-MS/MS analysis; format: ADME, organism-based, Macaca fascicularis; conditions: in vivo
[8] = Apparent permeability across apical to basolateral side in dog MDCK cells; format: ADME, cell-based, Canis lupus familiaris
[9] = Kinetic solubility of compound; format: physicochemical; conditions: read-out: Kinetic_solubility
[10] = Plasma protein binding in human relative to control; format: ADME, cell-free; conditions: read-out: PPB (converted)
[11] = Plasma protein binding in rat relative to control; format: ADME, cell-free; conditions: read-out: PPB (converted)
[12] = Plasma protein binding in mouse relative to control; format: ADME, cell-free; conditions: read-out: PPB (converted)
[13] = Plasma protein binding in dog relative to control; format: ADME, cell-free, Canis lupus familiaris; conditions: read-out: PPB (converted)
[14] = Plasma protein binding in cynomolgus monkey relative to control; format: ADME, cell-free, Macaca fascicularis; conditions: read-out: PPB (converted)
[15] = Oral bioavailability in Beagle dog at 1 mg/kg measured upto 24 hrs by LC-MS/MS analysis; format: ADME, organism-based, Canis lupus familiaris; conditions: in vivo
hERG (KCNH2) [16] = biological target: T1, hERG (KCNH2) (Homo sapiens, UniProt Q12809); experiment: Inhibition of hERG at 1 uM relative to control; format: toxicity
hERG (KCNH2) [17] = biological target: T1, hERG (KCNH2); experiment: Inhibition of hERG at 10 uM relative to control; format: toxicity
[18] = Half life in Beagle dog at 1 mg/kg, iv measured upto 24 hrs by LC-MS/MS analysis; format: ADME, organism-based, Canis lupus familiaris; conditions: in vivo
[19] = Half life in cynomolgus monkey at 1 mg/kg, iv measured upto 24 hrs by LC-MS/MS analysis; format: ADME, organism-based, Macaca fascicularis; conditions: in vivo
[20] = Oral bioavailability in CD-1 mouse at 1 mg/kg measured upto 24 hrs by LC-MS/MS analysis; format: ADME, organism-based; conditions: in vivo
[21] = Oral bioavailability in Sprague-Dawley rat at 1 mg/kg measured upto 24 hrs by LC-MS/MS analysis; format: ADME, organism-based; conditions: in vivo
[22] = Solubility of compound at pH 1.50 to 7.50 by RP-HPLC analysis; format: physicochemical; conditions: buffer, pH 1.5
[23] = Renal toxicity in cynomolgus monkey upto 500 mg/kg/day measured for 14 days; format: organism-based, Macaca fascicularis; conditions: in vivo, 336 h, time 14 day
[24] = Renal toxicity in cynomolgus monkey assessed as minimal thymic lymphoid depletion at >= 300 mg/kg/day measured for 14 days; format: organism-based, Macaca fascicularis; conditions: in vivo, 336 h, time 14 day
[25] = Hepatic toxicity in cynomolgus monkey upto 500 mg/kg/day measured for 14 days; format: organism-based, Macaca fascicularis; conditions: in vivo, 336 h, time 14 day
[26] = Renal toxicity in cynomolgus monkey at 100 mg/kg/day for 14 days; format: organism-based, Macaca fascicularis; conditions: in vivo, 336 h, time 14 day
[27] = Cytotoxicity against human hepatocyte; format: toxicity, cell-based; conditions: hepatocytes
[28] = Renal toxicity in cynomolgus monkey assessed as increase in kidney weight at 100 to 300 mg/kg/day for 14 days; format: organism-based, Macaca fascicularis; conditions: in vivo, 336 h, dose 100-300 mg/kg/day, time 14 day
[29] = Renal toxicity in cynomolgus monkey assessed as increase in blood urea nitrogen at 100 to 300 mg/kg/day for 14 days; format: organism-based, Macaca fascicularis; conditions: in vivo, 336 h, dose 100-300 mg/kg/day, time 14 day
[30] = Renal toxicity in cynomolgus monkey assessed as retrograde nephropathy at 100 to 300 mg/kg/day for 14 days; format: organism-based, Macaca fascicularis; conditions: in vivo, 336 h, dose 100-300 mg/kg/day, time 14 day

T1 sequence (Q12809 whole entry): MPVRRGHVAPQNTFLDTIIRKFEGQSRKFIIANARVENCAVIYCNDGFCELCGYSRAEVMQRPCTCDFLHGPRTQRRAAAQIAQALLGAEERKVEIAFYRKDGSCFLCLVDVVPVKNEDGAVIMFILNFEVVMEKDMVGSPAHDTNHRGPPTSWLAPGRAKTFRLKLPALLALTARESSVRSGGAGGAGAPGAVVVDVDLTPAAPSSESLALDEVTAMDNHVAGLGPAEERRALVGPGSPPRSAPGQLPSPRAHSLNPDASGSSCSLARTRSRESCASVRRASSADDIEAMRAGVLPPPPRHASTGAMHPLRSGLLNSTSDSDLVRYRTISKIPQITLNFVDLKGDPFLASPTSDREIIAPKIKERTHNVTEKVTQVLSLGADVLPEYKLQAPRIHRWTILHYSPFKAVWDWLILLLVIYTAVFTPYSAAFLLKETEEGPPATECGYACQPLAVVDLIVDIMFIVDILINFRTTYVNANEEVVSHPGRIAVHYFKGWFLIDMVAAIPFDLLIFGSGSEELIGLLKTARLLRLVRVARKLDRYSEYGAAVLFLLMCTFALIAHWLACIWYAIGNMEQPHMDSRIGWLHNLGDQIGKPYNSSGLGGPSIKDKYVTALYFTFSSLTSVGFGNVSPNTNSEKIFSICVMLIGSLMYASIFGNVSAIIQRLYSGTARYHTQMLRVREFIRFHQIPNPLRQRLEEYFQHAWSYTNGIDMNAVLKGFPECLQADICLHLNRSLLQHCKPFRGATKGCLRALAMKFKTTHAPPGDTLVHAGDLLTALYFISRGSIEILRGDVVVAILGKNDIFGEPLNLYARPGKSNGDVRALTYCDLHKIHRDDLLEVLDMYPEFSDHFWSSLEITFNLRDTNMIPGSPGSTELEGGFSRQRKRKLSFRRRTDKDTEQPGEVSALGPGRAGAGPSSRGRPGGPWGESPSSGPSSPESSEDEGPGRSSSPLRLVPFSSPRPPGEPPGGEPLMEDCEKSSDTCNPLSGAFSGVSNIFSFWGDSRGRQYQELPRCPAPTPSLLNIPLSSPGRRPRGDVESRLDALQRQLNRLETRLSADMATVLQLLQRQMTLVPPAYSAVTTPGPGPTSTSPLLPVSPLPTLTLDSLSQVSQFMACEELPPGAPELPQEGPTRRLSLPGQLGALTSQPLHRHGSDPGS

half-life [1]	half-life [2]	Vdss [3]	Vdss [4]	Vdss [5]	Vdss [6]	bioavailability [7]	Papp A→B [8]	solubility kinetic at 24 h [9]	fraction unbound [10]	fraction unbound [11]	fraction unbound [12]	fraction unbound [13]	fraction unbound [14]	bioavailability [15]	half-life [18]	half-life [19]	bioavailability [20]	Structure (SMILES)	inhibition at 1 µM (hERG (KCNH2) [16])	inhibition at 10 µM (hERG (KCNH2) [17])	other results
–	–	–	–	–	–	–	–	–	–	–	–	–	–	–	–	–	–	C=CC1=C(C(=O)O)N2C(=O)[C@@H](NC(=O)/C(=N\OCOC(=O)C(C)(C)C)c3csc(N)n3)C2SC1 (stereo partly drawn)	–	–	Activity (Rattus norvegicus): Active
264 min	72 min	0.18 L/kg	0.67 L/kg	0.29 L/kg	0.72 L/kg	53%	0.077 ×10⁻⁶ cm/s	105 µM (≈ 45.3 µg/mL)	0.044	0.07	0.024	0.114	0.082	78%	59.4 min	53.4 min	80%	CN[C@@H]1COc2c(S(=O)(=O)NC(=O)Nc3c4c(cc5c3CCC5)CCC4)cnn2C1	-3.1%	0.2%	bioavailability [21]: 33%; solubility [22]: Soluble; Activity [23]: Non-Toxic; Activity [24]: Non-Toxic; Activity [25]: Non-Toxic
66 min	114 min	0.08 L/kg	0.2 L/kg	0.2 L/kg	0.2 L/kg	17%	1.8 ×10⁻⁶ cm/s	102 µM (≈ 41.1 µg/mL)	0.014	0.014	0.009	0.045	0.04	28%	174 min	84 min	18%	O=C(Nc1c2c(cc3c1CCC3)CCC2)NS(=O)(=O)c1cnn2c1OCCC2 [JT-001]	4.1%	9.7%	Activity [26]: Toxic; IC50 [27]: > 100 µM; bioavailability [21]: 30%; Activity [28]: Toxic; Activity [29]: Toxic; Activity [30]: Toxic; solubility [22]: Soluble
